Test results published in patent US20210038730A1, “PEPTIDE NANOFIBERS” (UNIVERSITY OF PORTSMOUTH HIGHER EDUCATION CORPORATION, priority 2018, published 2021).

Tests used:
[1] = tested on: SC-1800 cells; experiment: Cytotoxicity (MTT) in cerebral astrocytes; type: cell-based, human; settings: 3.5-140 μM, 4 and 24 hours
Experimental: Human brain microvessel endothelial cells (hCMEC/D3) and cerebral astrocytes (SC-1800) were maintained in a humidified atmosphere of 5% CO2, and the medium was refreshed every 2-3 days. hCMEC/D3 cells were cultured in endothelial basal medium-2 (EBM-2) supplemented with the EGM-2 Bullet Kit and 2% (v/v) human serum. SC-1800 were cultured in astrocytes basal medium (ABM) supplemented with AGM Bullet Kit and 3% (v/v) human serum. […] Subsequently, complete growth medium (4 mL) was added and cells were centrifuged using a C-28A centrifuge (Boeco, Hamburg, Germany) at 1,000 rpm for 5 minutes. Supernatant was discarded, and pellet was re-suspended in 1 mL of medium. The cell number was counted using Trypan Blue Exclusion Assay in the Countess II Automated Cell Counter (Thermo Scientific, Paisley, UK). hCMEC/D3 and SC-1800 cells were seeded at 20,000 cells/cm^2 in complete medium and allowed to attach overnight. […] Cell metabolic activity was measured after 4 and 24 hours using (3-(4,5)-dimethylthiazol-2-yl)-2,5-diphenyltetrazolium bromide ([…]) assay. […] Subsequently, DMSO (100 μL) was added to dissolve the formazan crystals and absorbance was measured at 570 and 690 nm. Metabolic activity was calculated by subtracting the absorbance values at 690 nm to 570 nm to remove background, and dividing the values by the control to express as a percentage (%) of the control using the equation below. […]

[2] = tested on: U-87 MG cells; experiment: Cell proliferation (BrdU ELISA); type: cell-based, human; settings: >7 μM, every two days, 6 days of treatment
Experimental: (§1) In vitro antitumour effects of TPGnRH and PAX-loaded TPGnRH were assessed in U-87 MG cells, UP-007, UP-029, SEBTA-023 MDA-MD-231 [triple negative (ER^−, PR—, HER2^−) breast cancer cell line] and SK-OV-3 (human ovarian carcinoma with a low expression of GnRH-R). Cells were seeded at 1,400 cells/cm^2 and allowed to attach and grow for 3 days. In experiments with TPGnRH nanofibers alone (to obtain the IC50 value in each cell line), cells were treated with medium supplemented with the peptide solutions in PBS (0.7 to 700 μM) to achieve a final concentration of 0.07 to 70 μM per well. Media was replaced by fresh media every two days for 6 days. […] On day 4, PAX-loaded TPGnRH nanofibers containing 1 nM of PAX and 7 or 35 μM of TPGnRH were added and the effect on cell viability, proliferation, cell cycle, and apoptosis was assessed on day 6. Only for the MDA-MB-231 cells, on day 4, PAX-loaded TPGnRH nanofibers containing 10 nM of PAX and 7 or 35 μM of TPGnRH were added and the effect on cell viability, proliferation, cell cycle, and apoptosis was also assessed on day 6. […] Cell metabolic activity was measured using MTT assay. […] Afterwards, dimethyl sulfoxide (100 μL) was added to the wells to dissolve the formazan crystals and the absorbance was measured at 570 and 690 nm. […] Cells were incubated with BrdU for 24 hours before the end of the pre-determined time-points. […]

[3] = tested on: U-87 MG cells; experiment: Cell cycle (propidium iodide flow cytometry); type: cell-based, human
Experimental: as §1

[4] = molecular target: T1, GnRH-R (Homo sapiens, UniProt P30968); experiment: Forskolin-induced intracellular cAMP ELISA; type: cell-based; settings: forskolin 5 μM, 15 minutes
T1 construct: The intracellular cAMP was quantified using the Direct cAMP ELISA kit; endogenous in cells
T1 sequence (P30968 1-328): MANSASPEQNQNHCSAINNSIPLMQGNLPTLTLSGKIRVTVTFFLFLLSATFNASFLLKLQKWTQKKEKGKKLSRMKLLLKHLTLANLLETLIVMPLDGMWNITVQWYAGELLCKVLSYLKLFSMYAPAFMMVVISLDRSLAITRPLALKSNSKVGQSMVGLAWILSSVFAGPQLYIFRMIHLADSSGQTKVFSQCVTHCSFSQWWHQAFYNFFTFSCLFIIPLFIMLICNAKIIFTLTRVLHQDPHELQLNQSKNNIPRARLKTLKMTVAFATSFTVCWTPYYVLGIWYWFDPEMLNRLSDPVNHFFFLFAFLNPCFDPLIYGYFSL

Compound: CCCCCCCCCCCCCCCC(=O)Oc1ccc(C[C@H](NC(=O)[C@H](CO)NC(=O)[C@H](Cc2c[nH]c3ccccc23)NC(=O)[C@H](Cc2c[nH]cn2)NC(=O)[C@@H](N)CCC(=O)O)C(=O)NCC(=O)N[C@@H](CC(C)C)C(=O)N[C@@H](CCCNC(=N)N)C(=O)N2CCC[C@H]2C(=O)NCC(N)=O)cc1 [TPGnRH, Tyrosine (O-Palmitoyl)-Glu-GnRH]
- cytotoxicity (metabolic activity, MTT) [1]: no cytotoxicity
- effect on cell proliferation [2]: significant reduction in cell proliferation
- effect on cell cycle ([3]; >7 μM, every two days, 6 days of treatment): cell cycle arrest at the G2/M phase
- percentage of cells at G2/M ([3]; day 6, TPGnRH alone at 35 μM or TPGnRH 4 days then one dose of PAX-loaded TPGnRH): 21.81±3.98%
- effect on forskolin-induced cAMP intracellular accumulation [4]: counteracted the forskolin-induced cAMP intracellular accumulation
